Source: ChEMBL document CHEMBL4364347, “Recent advances in class IIa histone deacetylases research” (Bioorg Med Chem, 2019)

How the values were obtained:
Histone deacetylase 4 [1] = target: T1, Histone deacetylase 4 (Homo sapiens, UniProt P56524); assay: Inhibition of HDAC4 (unknown origin)
Histone deacetylase 5 [2] = target: T2, Histone deacetylase 5 (Homo sapiens, UniProt Q9UQL6); assay: Inhibition of HDAC5 (unknown origin)
Histone deacetylase 7 [3] = target: T3, Histone deacetylase 7 (Homo sapiens, UniProt Q8WUI4); assay: Inhibition of HDAC7 (unknown origin)
T3 sequence (Q8WUI4 whole entry): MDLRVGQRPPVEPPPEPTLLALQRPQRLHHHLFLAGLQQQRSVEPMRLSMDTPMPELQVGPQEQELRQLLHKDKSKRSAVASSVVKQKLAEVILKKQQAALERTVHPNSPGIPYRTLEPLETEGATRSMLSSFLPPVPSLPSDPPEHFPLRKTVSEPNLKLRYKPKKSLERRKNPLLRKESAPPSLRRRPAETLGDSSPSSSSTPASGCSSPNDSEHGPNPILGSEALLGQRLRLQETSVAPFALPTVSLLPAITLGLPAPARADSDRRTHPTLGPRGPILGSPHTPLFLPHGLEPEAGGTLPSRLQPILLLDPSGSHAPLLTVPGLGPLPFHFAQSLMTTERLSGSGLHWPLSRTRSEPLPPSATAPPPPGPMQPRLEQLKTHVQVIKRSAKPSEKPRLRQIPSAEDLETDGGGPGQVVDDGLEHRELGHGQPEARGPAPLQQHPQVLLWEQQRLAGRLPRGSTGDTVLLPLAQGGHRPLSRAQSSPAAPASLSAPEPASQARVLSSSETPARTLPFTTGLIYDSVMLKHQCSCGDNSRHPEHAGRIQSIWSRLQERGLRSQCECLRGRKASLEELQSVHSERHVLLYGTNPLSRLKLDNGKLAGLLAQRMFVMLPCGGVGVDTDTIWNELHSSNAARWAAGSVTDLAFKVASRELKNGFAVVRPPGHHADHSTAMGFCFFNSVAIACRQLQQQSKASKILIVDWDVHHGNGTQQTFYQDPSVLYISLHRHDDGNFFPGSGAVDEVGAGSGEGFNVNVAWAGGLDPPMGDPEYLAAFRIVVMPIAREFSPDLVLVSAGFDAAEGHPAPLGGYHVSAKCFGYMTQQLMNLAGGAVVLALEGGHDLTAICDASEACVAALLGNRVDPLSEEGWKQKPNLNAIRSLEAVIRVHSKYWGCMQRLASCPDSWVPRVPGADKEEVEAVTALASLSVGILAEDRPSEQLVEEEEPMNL

Histone deacetylase 9 [4] = target: T4, Histone deacetylase 9 (Homo sapiens, UniProt Q9UKV0); assay: Inhibition of HDAC9 (unknown origin)
Histone deacetylase 1 = Histone deacetylase 1 (Homo sapiens, UniProt Q13547); assay: Inhibition of HDAC1 (unknown origin)
Histone deacetylase 2 = Histone deacetylase 2 (Homo sapiens, UniProt Q92769); assay: Inhibition of HDAC2 (unknown origin)
Histone deacetylase 3 = Histone deacetylase 3 (Homo sapiens, UniProt O15379); assay: Inhibition of HDAC3 (unknown origin)
[5] = target: T5, Protein deacetylase HDAC6 (Homo sapiens, UniProt Q9UBN7); assay: Inhibition of HDAC6 (unknown origin)
T5 sequence (Q9UBN7 whole entry): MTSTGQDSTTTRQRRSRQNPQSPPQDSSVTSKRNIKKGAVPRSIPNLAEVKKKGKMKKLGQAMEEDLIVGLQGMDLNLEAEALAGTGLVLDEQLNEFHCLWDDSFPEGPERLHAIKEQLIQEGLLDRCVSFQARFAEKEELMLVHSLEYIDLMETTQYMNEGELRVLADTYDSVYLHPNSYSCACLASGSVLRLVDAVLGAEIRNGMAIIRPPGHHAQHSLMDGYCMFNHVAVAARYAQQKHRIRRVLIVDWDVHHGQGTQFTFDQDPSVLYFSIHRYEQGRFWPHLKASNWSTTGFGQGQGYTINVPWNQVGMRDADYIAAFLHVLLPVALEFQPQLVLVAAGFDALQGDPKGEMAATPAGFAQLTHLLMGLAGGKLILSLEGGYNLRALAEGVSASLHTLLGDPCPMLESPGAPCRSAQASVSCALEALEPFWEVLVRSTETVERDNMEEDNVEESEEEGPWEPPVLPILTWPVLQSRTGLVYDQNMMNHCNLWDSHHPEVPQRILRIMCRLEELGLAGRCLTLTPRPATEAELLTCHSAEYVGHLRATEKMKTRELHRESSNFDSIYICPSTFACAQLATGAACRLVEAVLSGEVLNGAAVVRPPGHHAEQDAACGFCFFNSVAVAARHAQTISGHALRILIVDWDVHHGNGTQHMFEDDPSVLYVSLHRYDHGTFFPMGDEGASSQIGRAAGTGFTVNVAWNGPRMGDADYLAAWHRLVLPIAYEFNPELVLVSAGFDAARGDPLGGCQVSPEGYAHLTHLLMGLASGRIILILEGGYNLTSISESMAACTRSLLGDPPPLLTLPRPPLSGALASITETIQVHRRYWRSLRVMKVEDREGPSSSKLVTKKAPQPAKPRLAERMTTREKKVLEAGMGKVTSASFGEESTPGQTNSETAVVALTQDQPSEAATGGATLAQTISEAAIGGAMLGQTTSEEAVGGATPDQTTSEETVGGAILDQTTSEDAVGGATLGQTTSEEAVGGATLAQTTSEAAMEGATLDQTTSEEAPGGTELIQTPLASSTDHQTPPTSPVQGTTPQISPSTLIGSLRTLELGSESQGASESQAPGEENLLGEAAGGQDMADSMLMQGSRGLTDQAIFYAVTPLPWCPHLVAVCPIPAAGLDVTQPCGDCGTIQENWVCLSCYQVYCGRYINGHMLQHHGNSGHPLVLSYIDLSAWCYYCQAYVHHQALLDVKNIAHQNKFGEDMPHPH

Histone deacetylase 8 = target: T6, Histone deacetylase 8 (Homo sapiens, UniProt Q9BY41); assay: Inhibition of HDAC8 (unknown origin)
T6 sequence (Q9BY41 whole entry): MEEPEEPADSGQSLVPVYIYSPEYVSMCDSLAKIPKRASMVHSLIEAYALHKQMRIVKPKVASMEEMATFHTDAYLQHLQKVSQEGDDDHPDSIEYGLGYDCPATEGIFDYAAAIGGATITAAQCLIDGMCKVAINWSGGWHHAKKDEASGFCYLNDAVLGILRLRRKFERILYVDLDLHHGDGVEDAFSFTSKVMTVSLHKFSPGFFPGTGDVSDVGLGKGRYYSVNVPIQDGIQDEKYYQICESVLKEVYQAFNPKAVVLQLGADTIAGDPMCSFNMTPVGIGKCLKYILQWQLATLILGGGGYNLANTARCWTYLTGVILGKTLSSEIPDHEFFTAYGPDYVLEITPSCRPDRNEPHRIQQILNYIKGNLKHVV

[6] = target: T7, Polyamine deacetylase HDAC10 (Homo sapiens, UniProt Q969S8); assay: Inhibition of HDAC10 (unknown origin)
T7 sequence (Q969S8 whole entry): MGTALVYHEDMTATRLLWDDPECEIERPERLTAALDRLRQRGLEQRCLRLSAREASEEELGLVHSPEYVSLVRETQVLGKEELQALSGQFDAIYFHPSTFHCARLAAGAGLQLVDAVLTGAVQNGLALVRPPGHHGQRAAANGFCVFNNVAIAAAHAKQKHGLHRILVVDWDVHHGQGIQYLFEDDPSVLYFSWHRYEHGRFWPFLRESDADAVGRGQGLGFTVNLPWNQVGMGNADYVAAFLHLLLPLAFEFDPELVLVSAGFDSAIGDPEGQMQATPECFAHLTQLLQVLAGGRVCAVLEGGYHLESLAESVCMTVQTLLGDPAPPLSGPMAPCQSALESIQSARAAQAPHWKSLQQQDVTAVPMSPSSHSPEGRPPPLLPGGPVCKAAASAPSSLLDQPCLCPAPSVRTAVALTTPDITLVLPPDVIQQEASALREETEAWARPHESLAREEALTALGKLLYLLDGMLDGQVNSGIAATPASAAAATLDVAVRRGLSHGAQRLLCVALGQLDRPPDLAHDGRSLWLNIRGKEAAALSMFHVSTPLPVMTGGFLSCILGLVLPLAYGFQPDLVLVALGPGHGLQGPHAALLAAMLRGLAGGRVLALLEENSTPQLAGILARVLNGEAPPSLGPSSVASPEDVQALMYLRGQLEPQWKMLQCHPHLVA

Histone deacetylase 11 = target: T8, Histone deacetylase 11 (Homo sapiens, UniProt Q96DB2); assay: Inhibition of HDAC11 (unknown origin)
T8 sequence (Q96DB2 whole entry): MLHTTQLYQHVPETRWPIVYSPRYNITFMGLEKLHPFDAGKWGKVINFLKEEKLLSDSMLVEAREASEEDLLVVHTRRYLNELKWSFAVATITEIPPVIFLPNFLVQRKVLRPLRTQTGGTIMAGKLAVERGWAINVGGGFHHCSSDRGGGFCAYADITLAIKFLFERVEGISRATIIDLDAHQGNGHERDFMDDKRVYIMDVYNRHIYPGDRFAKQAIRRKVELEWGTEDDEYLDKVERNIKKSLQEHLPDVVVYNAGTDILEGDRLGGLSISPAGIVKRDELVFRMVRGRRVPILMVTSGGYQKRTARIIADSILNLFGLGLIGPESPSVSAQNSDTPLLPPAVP

Histone deacetylase 4 [7] = target: T1, Histone deacetylase 4; assay: Inhibition of HDAC4 in human HeLa nuclear extract using Boc-Lys(Ac)-AMC as substrate preincubated for 5 mins followed by substrate addition measured after 30 mins by fluorometric assay; assay type: cell-free
Histone deacetylase 5 [8] = target: T2, Histone deacetylase 5; assay: Inhibition of HDAC5 in human HeLa nuclear extract using Boc-Lys(Ac)-AMC as substrate preincubated for 5 mins followed by substrate addition measured after 30 mins by fluorometric assay; assay type: cell-free
Histone deacetylase 7 [9] = target: T3, Histone deacetylase 7; assay: Inhibition of HDAC7 in human HeLa nuclear extract using Boc-Lys(Ac)-AMC as substrate preincubated for 5 mins followed by substrate addition measured after 30 mins by fluorometric assay; assay type: cell-free
Histone deacetylase 9 [10] = target: T4, Histone deacetylase 9; assay: Inhibition of HDAC9 in human HeLa nuclear extract using Boc-Lys(Ac)-AMC as substrate preincubated for 5 mins followed by substrate addition measured after 30 mins by fluorometric assay; assay type: cell-free
[11] = target: T5, Protein deacetylase HDAC6; assay: Inhibition of HDAC6 in human HeLa nuclear extract using Boc-Lys(Ac)-AMC as substrate preincubated for 5 mins followed by substrate addition measured after 30 mins by fluorometric assay; assay type: cell-free

T2 sequence (Q9UQL6 whole entry): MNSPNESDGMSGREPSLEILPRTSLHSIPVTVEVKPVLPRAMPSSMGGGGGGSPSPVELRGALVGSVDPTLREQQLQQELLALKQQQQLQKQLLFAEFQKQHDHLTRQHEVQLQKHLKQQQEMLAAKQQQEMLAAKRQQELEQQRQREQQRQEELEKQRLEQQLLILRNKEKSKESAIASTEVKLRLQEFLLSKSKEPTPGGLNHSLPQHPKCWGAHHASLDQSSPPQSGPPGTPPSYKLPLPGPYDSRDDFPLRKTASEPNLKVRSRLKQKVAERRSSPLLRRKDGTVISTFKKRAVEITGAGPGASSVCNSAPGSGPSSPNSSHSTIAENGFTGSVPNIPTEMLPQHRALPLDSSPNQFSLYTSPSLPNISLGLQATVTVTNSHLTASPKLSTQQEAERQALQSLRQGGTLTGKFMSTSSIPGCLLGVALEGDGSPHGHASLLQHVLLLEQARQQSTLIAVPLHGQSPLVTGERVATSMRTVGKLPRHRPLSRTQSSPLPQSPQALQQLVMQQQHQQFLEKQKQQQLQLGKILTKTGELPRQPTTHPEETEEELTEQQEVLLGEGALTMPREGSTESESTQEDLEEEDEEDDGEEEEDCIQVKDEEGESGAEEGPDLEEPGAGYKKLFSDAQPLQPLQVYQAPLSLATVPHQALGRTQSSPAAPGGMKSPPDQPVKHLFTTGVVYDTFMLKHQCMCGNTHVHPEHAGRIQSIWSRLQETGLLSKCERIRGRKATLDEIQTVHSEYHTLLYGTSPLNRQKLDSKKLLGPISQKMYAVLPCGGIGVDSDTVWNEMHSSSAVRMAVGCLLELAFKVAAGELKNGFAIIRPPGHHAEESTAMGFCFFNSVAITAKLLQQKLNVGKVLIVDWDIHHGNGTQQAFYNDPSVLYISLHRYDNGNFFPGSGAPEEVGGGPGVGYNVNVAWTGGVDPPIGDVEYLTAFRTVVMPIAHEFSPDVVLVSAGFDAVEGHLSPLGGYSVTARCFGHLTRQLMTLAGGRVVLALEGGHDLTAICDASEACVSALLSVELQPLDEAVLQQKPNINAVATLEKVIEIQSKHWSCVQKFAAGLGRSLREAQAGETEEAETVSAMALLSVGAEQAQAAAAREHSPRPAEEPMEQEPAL
T4 sequence (Q9UKV0 whole entry): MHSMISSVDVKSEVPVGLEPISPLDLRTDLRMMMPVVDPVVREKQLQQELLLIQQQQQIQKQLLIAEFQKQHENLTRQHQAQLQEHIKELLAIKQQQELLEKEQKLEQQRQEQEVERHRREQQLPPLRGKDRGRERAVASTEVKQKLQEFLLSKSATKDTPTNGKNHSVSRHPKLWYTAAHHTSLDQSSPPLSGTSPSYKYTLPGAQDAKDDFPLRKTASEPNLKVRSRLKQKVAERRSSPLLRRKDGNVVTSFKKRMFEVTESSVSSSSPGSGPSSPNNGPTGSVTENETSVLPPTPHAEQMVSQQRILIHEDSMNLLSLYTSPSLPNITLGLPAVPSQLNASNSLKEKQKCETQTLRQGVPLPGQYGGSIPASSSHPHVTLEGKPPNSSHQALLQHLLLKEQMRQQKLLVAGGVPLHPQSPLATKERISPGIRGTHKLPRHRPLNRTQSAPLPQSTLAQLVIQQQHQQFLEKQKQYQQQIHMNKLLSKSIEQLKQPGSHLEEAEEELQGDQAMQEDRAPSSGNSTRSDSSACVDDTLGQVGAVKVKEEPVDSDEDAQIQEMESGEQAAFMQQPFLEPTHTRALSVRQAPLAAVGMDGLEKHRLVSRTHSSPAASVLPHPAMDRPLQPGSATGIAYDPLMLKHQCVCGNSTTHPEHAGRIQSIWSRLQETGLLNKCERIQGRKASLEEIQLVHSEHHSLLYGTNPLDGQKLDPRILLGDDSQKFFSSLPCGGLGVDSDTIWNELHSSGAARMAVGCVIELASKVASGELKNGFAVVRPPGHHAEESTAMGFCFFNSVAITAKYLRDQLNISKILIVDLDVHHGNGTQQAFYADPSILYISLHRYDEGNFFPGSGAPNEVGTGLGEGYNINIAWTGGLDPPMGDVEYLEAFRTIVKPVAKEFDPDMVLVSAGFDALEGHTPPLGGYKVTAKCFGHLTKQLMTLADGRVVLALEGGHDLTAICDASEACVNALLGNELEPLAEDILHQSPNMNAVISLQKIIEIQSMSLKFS
T1 sequence (P56524 whole entry): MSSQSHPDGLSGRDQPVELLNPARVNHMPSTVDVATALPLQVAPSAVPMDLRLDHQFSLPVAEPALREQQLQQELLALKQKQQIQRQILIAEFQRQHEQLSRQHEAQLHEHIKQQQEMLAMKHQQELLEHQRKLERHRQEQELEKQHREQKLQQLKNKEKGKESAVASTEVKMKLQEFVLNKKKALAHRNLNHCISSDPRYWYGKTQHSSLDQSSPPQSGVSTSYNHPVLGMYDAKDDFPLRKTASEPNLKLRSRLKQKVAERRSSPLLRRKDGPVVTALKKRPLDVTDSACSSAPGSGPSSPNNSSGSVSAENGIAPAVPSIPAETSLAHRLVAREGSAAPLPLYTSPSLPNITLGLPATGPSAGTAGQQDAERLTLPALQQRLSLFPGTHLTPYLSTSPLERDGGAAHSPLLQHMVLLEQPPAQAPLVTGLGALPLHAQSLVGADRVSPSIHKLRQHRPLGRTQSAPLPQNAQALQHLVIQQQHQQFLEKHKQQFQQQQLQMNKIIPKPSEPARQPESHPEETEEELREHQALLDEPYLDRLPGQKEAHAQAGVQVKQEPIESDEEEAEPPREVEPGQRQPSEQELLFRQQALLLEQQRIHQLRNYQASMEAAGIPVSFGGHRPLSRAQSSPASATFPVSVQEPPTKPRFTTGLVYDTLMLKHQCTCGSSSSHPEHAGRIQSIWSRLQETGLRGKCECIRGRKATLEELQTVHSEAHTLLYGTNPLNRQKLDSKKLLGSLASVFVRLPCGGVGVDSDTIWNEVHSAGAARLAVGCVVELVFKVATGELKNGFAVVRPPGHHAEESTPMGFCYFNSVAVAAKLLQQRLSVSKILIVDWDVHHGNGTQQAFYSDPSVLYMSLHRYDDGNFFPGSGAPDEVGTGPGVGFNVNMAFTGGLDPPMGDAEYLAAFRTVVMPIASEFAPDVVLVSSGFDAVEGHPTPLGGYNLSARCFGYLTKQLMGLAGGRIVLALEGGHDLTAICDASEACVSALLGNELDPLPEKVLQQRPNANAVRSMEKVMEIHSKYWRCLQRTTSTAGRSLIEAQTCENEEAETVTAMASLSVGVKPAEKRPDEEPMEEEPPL
Chain of Histone deacetylase 3 (O15379 whole entry): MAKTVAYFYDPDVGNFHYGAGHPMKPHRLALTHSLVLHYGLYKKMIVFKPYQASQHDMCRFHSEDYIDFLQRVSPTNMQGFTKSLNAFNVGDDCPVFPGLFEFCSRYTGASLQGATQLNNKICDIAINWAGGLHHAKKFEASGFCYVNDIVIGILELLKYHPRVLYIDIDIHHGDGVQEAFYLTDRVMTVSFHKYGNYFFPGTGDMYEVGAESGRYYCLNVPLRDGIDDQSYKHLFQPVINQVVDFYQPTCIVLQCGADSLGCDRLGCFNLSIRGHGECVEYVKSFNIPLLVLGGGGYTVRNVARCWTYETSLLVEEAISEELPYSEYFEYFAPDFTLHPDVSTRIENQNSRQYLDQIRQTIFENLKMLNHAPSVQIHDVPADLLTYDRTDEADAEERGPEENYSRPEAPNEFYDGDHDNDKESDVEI
Chain of Histone deacetylase 1 (Q13547 whole entry): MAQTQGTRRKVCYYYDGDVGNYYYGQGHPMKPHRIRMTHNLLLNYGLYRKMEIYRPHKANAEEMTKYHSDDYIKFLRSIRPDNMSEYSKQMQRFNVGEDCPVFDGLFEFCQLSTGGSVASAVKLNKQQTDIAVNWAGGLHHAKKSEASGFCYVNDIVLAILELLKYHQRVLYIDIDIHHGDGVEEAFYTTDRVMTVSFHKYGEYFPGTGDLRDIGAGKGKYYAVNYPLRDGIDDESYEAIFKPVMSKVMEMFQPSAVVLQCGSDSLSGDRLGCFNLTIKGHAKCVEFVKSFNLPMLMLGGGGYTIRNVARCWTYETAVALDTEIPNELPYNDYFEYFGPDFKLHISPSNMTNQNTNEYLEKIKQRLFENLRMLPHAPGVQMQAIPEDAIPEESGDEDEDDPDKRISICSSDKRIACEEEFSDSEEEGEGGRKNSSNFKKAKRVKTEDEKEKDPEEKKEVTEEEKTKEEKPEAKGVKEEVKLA
Chain of Histone deacetylase 2 (Q92769 whole entry): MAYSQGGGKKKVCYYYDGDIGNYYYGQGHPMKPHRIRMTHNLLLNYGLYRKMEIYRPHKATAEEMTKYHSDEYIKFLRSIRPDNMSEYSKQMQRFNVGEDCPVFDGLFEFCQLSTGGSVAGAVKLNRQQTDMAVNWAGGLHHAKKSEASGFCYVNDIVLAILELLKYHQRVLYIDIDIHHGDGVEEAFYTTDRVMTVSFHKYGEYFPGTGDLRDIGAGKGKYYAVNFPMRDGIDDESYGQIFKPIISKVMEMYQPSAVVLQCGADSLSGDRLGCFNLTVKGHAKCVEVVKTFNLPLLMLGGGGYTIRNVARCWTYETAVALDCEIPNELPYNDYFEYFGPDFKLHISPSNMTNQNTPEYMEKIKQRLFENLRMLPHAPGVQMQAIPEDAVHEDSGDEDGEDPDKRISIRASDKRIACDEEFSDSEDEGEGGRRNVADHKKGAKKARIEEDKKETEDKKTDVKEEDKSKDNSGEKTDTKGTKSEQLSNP

Compound | Ki (Histone deacetylase 4 [1]) [µM] | Ki (Histone deacetylase 5 [2]) [µM] | Ki (Histone deacetylase 9 [4]) [µM] | Ki (Histone deacetylase 1) [µM] | Ki (Histone deacetylase 2) [µM] | Ki (Histone deacetylase 3) [µM] | Ki [5] [µM] | Ki (Histone deacetylase 8) [µM] | Ki [6] [µM] | Ki (Histone deacetylase 11) [µM] | other results
CN1CCC(CNC(=O)c2cccc(C(=O)NO)c2)(c2nc(-c3ccccc3)cs2)CC1 | 23.8 | 24.3 | 5.98 | 11.9 | > 19 | > 43 | 0.189 | 1.33 | > 10 | > 19 | Ki (Histone deacetylase 7 [3]): 3.94 µM
CN1CCC(CNC(=O)c2cccc(-c3noc(C(F)(F)F)n3)c2)(c2nc(-c3ccccc3)cs2)CC1 | 0.075 | 0.182 | 0.008 | > 23 | > 19 | > 43 | 2.81 | 7.66 | > 10 | > 19 | 
CN(Cc1cnc2nc(N)nc(N)c2n1)c1ccc(C(=O)NC(CCP(=O)(O)O)P(=O)(O)O)cc1 (stereo unspecified) |  |  |  |  |  |  |  |  |  |  | IC50 (Histone deacetylase 4 [1]): 4.16 µM; IC50 (Histone deacetylase 5 [2]): 1.27 µM; IC50 (Histone deacetylase 7 [3]): 16.2 µM; IC50 (Histone deacetylase 9 [4]): 7.84 µM; IC50 [5]: > 40 µM; IC50 (Histone deacetylase 4 [7]): > 40 µM; IC50 (Histone deacetylase 5 [8]): > 40 µM; IC50 (Histone deacetylase 7 [9]): > 40 µM; IC50 (Histone deacetylase 9 [10]): > 40 µM; IC50 [11]: > 40 µM
